In patent publication US6852744B2, “Pyrrolidine derivatives and their use as chymase inhibitor” (Dainippon Pharmaceutical Co., Ltd., priority 2000, dated 2005):
Where a chain is given by its changes, count along the chain named.

Columns and labels:
monkey chymase = molecular target: T1, monkey chymase (Macaca fascicularis, UniProt P56435); experiment: Monkey chymase inhibitory activity (in vitro, angiotensin I substrate); format: biochemical; settings: chymase purified from monkey cheek pouch and stomach; substrate angiotensin I; 37° C.; read-out: Monkey Chymase Inhibition (IC50:nM)
T1 construct: chymase was extracted from homogenized monkey cheek pouch and stomach; from tissue; host or cells: monkey cheek pouch and stomach
T1 sequence (P56435 22-247): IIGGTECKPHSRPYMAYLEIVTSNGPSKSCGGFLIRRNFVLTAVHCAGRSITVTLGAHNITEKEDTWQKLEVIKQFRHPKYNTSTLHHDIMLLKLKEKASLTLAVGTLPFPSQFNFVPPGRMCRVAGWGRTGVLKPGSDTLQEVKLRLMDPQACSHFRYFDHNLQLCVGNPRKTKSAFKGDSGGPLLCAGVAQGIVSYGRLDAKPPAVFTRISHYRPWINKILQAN
Experimental: (§1) The inhibitory activities of the compounds on monkey chymase and human chymase were tested in vitro. The test compounds are as shown by Compound Nos. in Tables 13 and 14.
Preparation of Monkey Chymase
Chymase was purified from monkey cheek pouch and stomach in the following manner.
Briefly, chymase was extracted from homogenized monkey cheek pouch and stomach with 0.01 mol/1000 ml sodium phosphate buffer, pH 7.4, containing 2 mol/1000 ml KCl and 0.1% Nonidet P-40 (Amresco Inc.). The solution containing chymase was applied to a heparin actigel column, and the chymase-rich fractions were collected.
(§2) Measurement of Chymase Inhibitory Activity (In Vitro Assay)
(§3) Briefly, the purified monkey or human chymase was diluted to an appropriate concentration with 0.01 mol/1000 ml sodium phosphate buffer, pH 7.4, containing 2 mol/1000 ml KCl and 0.1% Nonidet P-40 and used as enzyme solution. Angiotensin I (Peptide Institute Inc.) was diluted with water to 5 mg/ml and used as substrate solution. Test compounds were serially diluted with 10% DMSO. […] After pre-incubation of the mixture at 37° C., 20 μl of the substrate solution was added to the enzyme-test compound mixture and the new mixture was incubated at 37° C. Fifty μl of 30% trichloroacetic acid solution was finally added to stop the enzymatic reaction.
(§4) The amount of L-His-L-Leu was measured as angiotensin II produced by the enzymatic reaction. Briefly, 10 μl of the reaction mixture and 10 μl of 1% orthophthalaldehyde solution dissolved in methanol were mixed with 100 μl of 2 mol/1000 ml NaOH and kept at room temperature. The reaction was then stopped by adding 10 μl of 6 mol/1000 ml HCl.

human chymase = molecular target: T2, human chymase (Homo sapiens, UniProt P23946); experiment: Human chymase inhibitory activity (in vitro, angiotensin I substrate); format: biochemical; settings: recombinant human chymase (COS7 cells); substrate angiotensin I; 37° C.; read-out: Human Chymase Inhibition (IC50:nM)
T2 construct: made in house; host or cells: COS7 cells (transient transfection)
T2 sequence (P23946 22-247): T1 sequence (P56435 22-247) with S29F, V44A, K63E, Y159D, L201S, K221Q
Experimental: as §1
Preparation of Human Chymase
Human chymase was produced in mammalian cells using a recombinant DNA technique.
Construction of a human prochymase expression plasmid was performed in the following manner. Briefly, single stranded cDNA was synthesized from human heart mRNA (Clontech Laboratories, Inc.). Polymerase chain reaction amplification was carried out using the cDNA as a template and appropriate pairs of primers. The primer sequences were determined based on the human preprochymase. The amplified product was cloned into the plasmid pUC18, and then recloned into the plasmid pBluescript II KS(+) (Stratagene). Finally, the DNA fragment carrying the entire protein-coding sequences of the human preprochymase was inserted to a transient expression vector by the usual method to yield the human prochymase expression plasmid.
Transfection of COS7 cells with the human prochymase expression plasmid was carried out using the FuGene™ 6 transfection reagent (Boehringer Mannheim). About 7 hours after exposure to DNA, the culture medium was changed to a serum-free one. The culture supernatant was collected after 2 days culture.
Human prochymase was purified from the culture supernatant using a heparin actigel column as described above in the preparation of monkey chymase.
In order to produce active chymase, the human prochymase was incubated with dipeptidylpeptidase I (Sigma). The resultant active human chymase was purified using a heparin actigel column as described above. The active human chymase was eluted with 0.01 mol/1000 ml sodium phosphate buffer pH 7.4 containing 2 mol/1000 ml NaCl.
as §2
as §3, with “The chymase inhibitory activities of compounds I-A of this invention were measured according to the following method. Briefly,” for “Briefly,”
as §4, with “HCl. Finally, the fluorescence induced by the reaction was measured using in a photometer with an excitation wavelength of 355 nm and an emission wavelength of 460 nm. Chymase inhibitory activities of test compounds were expressed as 50% inhibitory concentration (IC50).” for “HCl.”

[1] = system: chymase-induced dye leakage; experiment: Skin permeability test: inhibition of vascular permeability (Evans Blue dye leakage); format: in vivo; settings: male Hartley guinea pigs, 100 mg/kg orally 1 hour before intradermal injection of human chymase
Experimental: Skin permeability test was carried out according to the following method. Briefly, male Hartley guinea pigs (350-460 g, Shizuoka Laboratory Animal Center, Japan) were anesthetized by intraperitoneal injection of Nembutal™ (30 mg/kg; Dainippon Pharmaceutical Co., Ltd., Japan). After shaving the guinea pigs dorsa, 50 μl of purified human chymase (Elastin Products Inc., USA) diluted with phosphate buffered saline (PBS) to a concentration of 1.8 units /55 μg protein/ml (1 unit of chymase represents the amount of chymase required to hydrolyze 1.0 μmole of N-benzoyl-L-tyrosine-ethyl ester (BTEE) per minute at 25° C.; pH 7.8) were injected intradermally into three dorsal sites of each animal. […] The amounts of dye leakage into the dorsal skins were measured according to the following method.
Briefly, the area around each injection site (16 mm diameter) was punched out from the inside of the skin, and the leaked dye was extracted by incubation of the punched skin in N,N-dimethylformamide (DMF, 3 ml) at 55° C. overnight. The absorbance of the dye extract was then measured using a spectrophotometer at a wavelength of 620 nm. […] The amount of chymase-induced dye leakage (ACDL) and the amount of solvent-induced dye leakage (ASDL) in each animal were calculated as the average of dye leakage from the three treated dorsal sites in each case. […]

[2] = Toxicity study, 2 weeks oral; format: in vivo; settings: five-week-old male ddy mice; orally once a day for 2 weeks; 30 and 300 mg/kg/day
Experimental: Five-week-old male ddy mice were administered orally once a day for 2 weeks with the compound I-A-1 at dose levels of 30 and 300 mg/kg/day.

in vivo = settings: male, ddy, mouse, po

IC50 (monkey chymase) [nM] | IC50 (human chymase) [nM] | concentration at 1 h (in vivo) [ng/mL] | Structure (SMILES) | Dye leakage inhibition rate (%) [1] [%] | treatment-related finding (body weight, diet consumption, heart, liver, kidney weight, necropsy finding, hematology, blood chemistry) [2]
3.8 | 55 | 480 | Cc1noc(C)c1C(=O)N[C@H](C(=O)N1CCC[C@H]1C(=O)N[C@@H](Cc1csc2ccccc12)C(=O)C(F)(F)F)C(C)C [I-A-1, N-[(1S)-2-((2S)-2-{N-[(1S)-1-(benzo[b]thiophen-3-yl-methyl)-3,3,3-trifluoro-2-oxopropyl]carbamoyl}pyrrolidinyl)-1-(methylethyl)-2-oxoethyl](3,5-dimethylisoxazol-4-yl)carboxamide] | 34 | no treatment-related finding
5.1 | 36 | 570 | Cc1nnsc1C(=O)N[C@H](C(=O)N1CCC[C@H]1C(=O)N[C@@H](Cc1csc2ccccc12)C(=O)C(F)(F)F)C(C)C [I-A-20, N-[(1S)-2-((2S)-2-{N-[(1S)-1-(benzo[b]thiophen-3-ylmethyl)-3,3,3-trifluoro-2-oxopropyl]carbamoyl}pyrrolidinyl)-1-(methylethyl)-2-oxoethyl](4-methyl(1,2,3-thiadiazol-5-yl))carboxamide] | 59 | 
